# From patent publication US8207172B2 (Bayer Intellectual Property GmbH, priority 2004, dated 2012)
# Where a name gives a salt, the structure may show the parent alone.
# How the values were obtained:
# [1] = test system: BT474 (human breast carcinoma); test: In vitro tumor cell proliferation assay (Cell Titer-Glo luminescent cell viability), BT474; type: cell-based; conditions: BT-474, 72 h, BT474 cells, 72 hours of drug exposure, ATP luminescence readout, read-out: IC50, anti-proliferative activity (inhibition of cell proliferation)
# Method in brief: (§1)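 A431 or BT474 cells were exposed 72 h at 37°C to serially diluted compounds (final 100 μM down to 64 pM, 0.1% DMSO). Viable cells were read by ATP luminescence (CellTiter-Glo) and IC50 values derived.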
# [2] = test system: A431 cells (human epidermoid carcinoma); test: In vitro tumor cell proliferation assay (Cell Titer-Glo luminescent cell viability), A431; type: cell-based; conditions: A-431, 72 h, 72 hours of drug exposure, ATP luminescence readout, read-out: IC50, anti-proliferative activity (inhibition of cell proliferation)
# Method in brief: as §1
SMILES,IC50 [1],IC50 [2]
"Fc1ccc(Nc2ncnc3sc4c(c23)CCc2nn(CCN3CCCC3)cc2-4)cc1Cl [Example 9, N-(3-chloro-4-fluorophenyl)-2-(2-pyrrolidin-1-ylethyl)-4,5-dihydro-2H-pyrimido[5′,4′:4,5]thieno[2,3-e]indazol-6-amine]",≤ 5 µM,≤ 5 µM
"CN1CCN(CCn2cc3c(n2)CCc2c-3sc3ncnc(Nc4ccc(OC(F)(F)F)c(Cl)c4)c23)CC1 [Example 53, N-[3-chloro-4-(trifluoromethoxy)phenyl]-2-[2-(4-methylpiperazin-1-yl)ethyl]-4,5-dihydro-2H-pyrimido[5′,4′:4,5]thieno[2,3-e]indazol-6-amine]",≤ 1 µM,≤ 5 µM
"O[C@H]1CCN(CCn2cc3c(n2)CCc2c-3sc3ncnc(Nc4ccc(F)c(Cl)c4)c23)C1 [Example 30, (3S)-1-(2-{6-[(3-chloro-4-fluorophenyl)amino]-4,5-dihydro-2H-pyrimido[5′,4′:4,5]thieno[2,3-e]indazol-2-yl}ethyl)pyrrolidin-3-ol]",≤ 5 µM,≤ 5 µM
"OCCn1cc2c(n1)CCc1c-2sc2ncnc(Nc3ccc4c(cnn4Cc4ccccc4)c3)c12 [Example 302, 2-{6-[(1-benzyl-1H-indazol-5-yl)amino]-4,5-dihydro-2H-pyrimido[5′,4′:4,5]thieno[2,3-e]indazol-2-yl}ethanol]",≤ 1 µM,≤ 5 µM
"CS(=O)(=O)CCNCCn1cc2c(n1)CCc1c-2sc2ncnc(Nc3ccc4c(cnn4Cc4ccccc4)c3)c12 [Example 307, N-(1-benzyl-1H-indazol-5-yl)-2-(2-{[2-(methylsulfonyl)ethyl]amino}ethyl)-4,5-dihydro-2H-pyrimido[5′,4′:4,5]thieno[2,3-e]indazol-6-amine]",≤ 1 µM,≤ 50 µM
"CN1CCN(CCn2ncc3c2CCc2c-3sc3ncnc(Nc4ccc(OCc5ccccn5)c(Cl)c4)c23)CC1 [Example 112, N-[3-chloro-4-(pyridin-2-ylmethoxy)phenyl]-3-[2-(4-methylpiperazin-1-yl)ethyl]-4,5-dihydro-3H-pyrimido[5′,4′:4,5]thieno[2,3-e]indazol-6-amine]",≤ 1 µM,≤ 5 µM
"OC[C@H](O)Cn1cc2c(n1)CCc1c-2sc2ncnc(Nc3ccc(F)c(Cl)c3)c12 [Example 44, (R)-3-[6-(3-Chloro-4-fluoro-phenylamino)-4,5-dihydro-10-thia-2,3,7,9-tetraaza-cyclopenta[a]fluoren-2-yl}-propane-1,2-diol]",≤ 1 µM,≤ 5 µM
"O[C@@H]1CCN(CCn2cc3c(n2)CCc2c-3sc3ncnc(Nc4ccc(F)c(Cl)c4)c23)C1 [Example 33, (3R)-1-(2-{6-[(3-chloro-4-fluorophenyl)amino]-4,5-dihydro-2H-pyrimido[5′,4′:4,5]thieno[2,3-e]indazol-2-yl}ethyl)-pyrrolidin-3-ol]",≤ 5 µM,≤ 5 µM
"Fc1ccc(Nc2ncnc3sc4c(c23)CCc2nn(CCNCCN3CCCC3)cc2-4)cc1Cl [Example 18, N-(3-chloro-4-fluorophenyl)-2-{2-[(2-pyrrolidin-1-ylethyl)amino]ethyl}-4,5-dihydro-2H-pyrimido[5′,4′:4,5]thieno[2,3-e]indazol-6-amine]",≤ 50 µM,≤ 50 µM
"Fc1ccc(Nc2ncnc3sc4c(c23)CCc2nn(CCN3CCCCC3)cc2-4)cc1Cl [Example 11, N-(3-chloro-4-fluorophenyl)-2-(2-piperidin-1-ylethyl)-4,5-dihydro-2H-pyrimido[5′,4′:4,5]thieno[2,3-e]indazol-6-amine]",≤ 5 µM,≤ 5 µM
"CN(C)C1CCN(CCn2ncc3c2CCc2c-3sc3ncnc(Nc4ccc5c(cnn5Cc5cccc(F)c5)c4)c23)C1 (centres unmarked) [Example 293, 3-{2-[3-(dimethylamino)pyrrolidin-1-yl]ethyl}-N-[1-(3-fluorobenzyl)-1H-indazol-5-yl]-4,5-dihydro-3H-pyrimido[5′,4′:4,5]thieno[2,3-e]indazol-6-amine]",≤ 1 µM,≤ 50 µM
"OC1CCN(CCn2ncc3c2CCc2c-3sc3ncnc(Nc4ccc5c(cnn5Cc5cccc(F)c5)c4)c23)C1 (centres unmarked) [Example 299, 1-[2-(6-{[1-(3-fluorobenzyl)-1H-indazol-5-yl]amino}-4,5-dihydro-3H-pyrimido[5′,4′:4,5]thieno[2,3-e]indazol-3-yl)ethyl]pyrrolidin-3-ol]",≤ 1 µM,≤ 5 µM
"CN(C)CCNCCn1cc2c(n1)CCc1c-2sc2ncnc(Nc3ccc(F)c(Cl)c3)c12 [Example 16, N′-(2-{6-[(3-chloro-4-fluorophenyl)amino]-4,5-dihydro-2H-pyrimido[5′,4′:4,5]thieno[2,3-e]indazol-2-yl}ethyl)-N,N-dimethylethane-1,2-diamine]",≤ 5 µM,≤ 5 µM

# Second part, the compound after the results:
IC50 [1],IC50 [2],SMILES
≤ 1 µM,≤ 50 µM,"O=C(CN1CCNCC1)N1CCC(n2cc3c(n2)CCc2c-3sc3ncnc(Nc4ccc(OCc5cccc(F)c5)c(Cl)c4)c23)CC1 [Example 221, N-{3-chloro-4-[(3-fluorobenzyl)oxy]phenyl}-2-[1-(piperazin-1-ylacetyl)piperidin-4-yl]-4,5-dihydro-2H-pyrimido[5′,4′:4,5]thieno[2,3-e]indazol-6-amine]"
≤ 1 µM,≤ 50 µM,"COC[C@@H]1CCCN1C[C@@H](O)Cn1cc2c(n1)CCc1c-2sc2ncnc(Nc3ccc(OCc4cccc(F)c4)c(Cl)c3)c12 [Example 140, (2R)-1-[6-({3-chloro-4-[(3-fluorobenzyl)oxy]phenyl}amino)-4,5-dihydro-2H-pyrimido[5′,4′:4,5]thienol[2,3-e]indazol-2-yl]-3-[(2S)-2-(methoxymethyl)pyrrolidin-1-yl]propan-2-ol]"
≤ 5 µM,≤ 50 µM,"CN(C)[C@@H]1CCN(CC(=O)N2CCC(Cn3cc4c(n3)CCc3c-4sc4ncnc(Nc5ccc(OCc6cccc(F)c6)c(Cl)c5)c34)CC2)C1 [Example 234, N-{3-chloro-4-[(3-fluorobenzyl)oxy]phenyl}-2-[(1-{[(3R)-3-(dimethylamino)pyrrolidin-1-yl]acetyl}piperidin-4-yl)methyl]-4,5-dihydro-2H-pyrimido[5′,4′:4,5]thieno[2,3-e]indazol-6-amine trifluoroacetate]"
≤ 1 µM,≤ 50 µM,"OCCNCCn1ncc2c1CCc1c-2sc2ncnc(Nc3ccc(OCc4cccc(F)c4)c(Cl)c3)c12 [Example 264, 2-({2-[6-({3-chloro-4-[(3-fluorobenzyl)oxy]phenyl}amino)-4,5-dihydro-3H-pyrimido[5′,4′:4,5]thieno[2,3-e]indazol-3-yl]ethyl}amino)ethanol]"
≤ 1 µM,≤ 5 µM,"CN1CCN(CCn2cc3c(n2)CCc2c-3sc3ncnc(Nc4ccc(OCc5ccccc5Cl)c(Cl)c4)c23)CC1 [Example 332, N-{3-chloro-4-[(2-chlorobenzyl)oxy]phenyl}-2-[2-(4-methylpiperazin-1-yl)ethyl]-4,5-dihydro-2H-pyrimido[5′,4′:4,5]thieno[2,3-e]indazol-6-amine]"
≤ 1 µM,≤ 5 µM,"OCCN(CCO)CCn1cc2c(n1)CCc1c-2sc2ncnc(Nc3ccc(OCc4cccc(F)c4)c(Cl)c3)c12 [Example 64, 2,2′-({2-[6-({3-chloro-4-[(3-fluorobenzyl)oxy]phenyl}amino)-4,5-dihydro-2H-pyrimido[5′,4′:4,5]thieno[2,3-e]indazol-2-yl]ethyl}imino)diethanol]"
≤ 1 µM,≤ 5 µM,"OCCNCCn1cc2c(n1)CCc1c-2sc2ncnc(Nc3ccc4c(cnn4Cc4cccc(F)c4)c3)c12 [Example 281, 2-{[2-(6-{[1-(3-fluorobenzyl)-1H-indazol-5-yl]amino}-4,5-dihydro-2H-pyrimido[5′,4′:4,5]thieno[2,3-e]indazol-2-yl)ethyl]amino}ethanol]"
≤ 1 µM,≤ 5 µM,"CN1CCN(CCn2cc3c(n2)CCc2c-3sc3ncnc(Nc4ccc(OCc5ccccc5)c(Cl)c4)c23)CC1 [Example 54, N-[4-(benzyloxy)-3-chlorophenyl]-2-[2-(4-methylpiperazin-1-yl)ethyl]-4,5-dihydro-2H-pyrimido[5′,4′:4,5]thieno[2,3-e]indazol-6-amine]"
≤ 5 µM,≤ 50 µM,"CCN(CC)C[C@@H](O)Cn1cc2c(n1)CCc1c-2sc2ncnc(Nc3ccc(OCc4cccc(F)c4)c(Cl)c3)c12 [Example 158, (2R)-1-[6-({3-chloro-4-[(3-fluorobenzyl)oxy]phenyl}amino)-4,5-dihydro-2H-pyrimido[5′,4′:4,5]thieno[2,3-e]indazol-2-yl]-3-(diethylamino)propan-2-ol trifluoroacetate (salt)]"
≤ 1 µM,≤ 5 µM,"CN1CCN(CCCn2ncc3c2CCc2c-3sc3ncnc(Nc4ccc(OCc5cccc(F)c5)c(Cl)c4)c23)CC1 [Example 269, N-{3-chloro-4-[(3-fluorobenzyl)oxy]phenyl}-3-[3-(4-methylpiperazin-1-yl)propyl]-4,5-dihydro-3H-pyrimido[5′,4′:4,5]thieno[2,3-e]indazol-6-amine]"
≤ 1 µM,≤ 5 µM,"COCCN(CCOC)CCn1cc2c(n1)CCc1c-2sc2ncnc(Nc3ccc4c(cnn4Cc4cccc(F)c4)c3)c12 [Example 285, 2-{2-[bis(2-methoxyethyl)amino]ethyl}-N-[1-(3-fluorobenzyl)-1H-indazol-5-yl]-4,5-dihydro-2H-pyrimido[5′,4′:4,5]thieno[2,3-e]indazol-6-amine]"
≤ 1 µM,≤ 50 µM,"NS(=O)(=O)OCCn1cc2c(n1)CCc1c-2sc2ncnc(Nc3ccc(OCc4cccc(F)c4)c(Cl)c3)c12 [Example 311, 2-[6-({3-chloro-4-[(3-fluorobenzyl)oxy]phenyl}amino)-4,5-dihydro-2H-pyrimido[5′,4′:4,5]thieno[2,3-e]indazol-2-yl]ethyl sulfamate]"
